One block for each compound: values may come before it.
Biological target: MAP4K1 (HPK1) (Homo sapiens (Human), UniProt Q92918)
Assay: MAP4K1 (HPK1) biochemical enzymatic activity, electrophoretic mobility shift (EZReader 2), ATP at APPKM (26 μM)
Excerpt: MAP4K1 (HPK1) and relevant off-target enzymatic activity was monitored using the Perkin Elmer electrophoretic mobility shift technology platform—the EZReader 2. […] Within the linear, steady-state phase of the kinase enzymatic reaction, the mixed pool of phosphorylated (product) and non-phosphorylated (substrate) peptides was passed through the microfluidic system of the PerkinElmer EZ Reader 2, under an applied electric potential difference. The presence of the phosphate group on the product peptide provided a difference in mass and charge between that of the substrate peptide, resulting in a separation of the substrate and product pools in the sample (Perrin et al. 2010). As the product and substrate peptide mixture passes the lasers within the instrument, these pools are detected (λex=488 nm, λent=568 nm) and resolved as separate peaks. The ratio between these peaks reflects the activity of the compound at that concentration, in that well, under those conditions.
Inhibitors were dissolved in 100% DMSO at a stock concentration of 10 mM. A 100×, 10-point, 4-fold serial dilution of each inhibitor was created in 100% DMSO either manually or on a Hamilton STAR liquid handler, starting at a relevant concentration, usually 1 mM. A volume of 0.130 μL of each concentration was transferred to the relevant wells of a 384-well plate (Greiner 781 201) in duplicate using a TTPLabtech Mosquito nano-litre dispenser. Using a Multidrop Combi, the remaining constituents of the kinase reaction were added to the 130 nL of dosed compound as follows (see table below for final reaction details):
Enzyme activity assays at the ^APPKM for ATP or 1 mM ATP: In each well of a 384-well plate, 0.1-15 nM of untreated enzyme was incubated in a total of 13 μL of buffer (100 mM HEPES pH 7.5, 0.015% Brij 35, 10 mM MgCl2, 1 mM DTT) with 1.5 μM fluorescent peptid and 20-1000 μM ATP, at 25° C., for 60-180 minutes in the presence or absence of a dosed concentration series of compound (1% DMSO final concentration). The kinase reactions were stopped by the addition of 70 μl of Stop buffer (100 mM HEPES pH 7.5, 0.015% Brij 35, 35 mM EDTA and 0.2% of Coating Reagent 3 (Caliper Lifesciences)). The plates were read on a Caliper EZReader 2 as described above.

Sequence of MAP4K1 (HPK1) (Q92918 whole entry): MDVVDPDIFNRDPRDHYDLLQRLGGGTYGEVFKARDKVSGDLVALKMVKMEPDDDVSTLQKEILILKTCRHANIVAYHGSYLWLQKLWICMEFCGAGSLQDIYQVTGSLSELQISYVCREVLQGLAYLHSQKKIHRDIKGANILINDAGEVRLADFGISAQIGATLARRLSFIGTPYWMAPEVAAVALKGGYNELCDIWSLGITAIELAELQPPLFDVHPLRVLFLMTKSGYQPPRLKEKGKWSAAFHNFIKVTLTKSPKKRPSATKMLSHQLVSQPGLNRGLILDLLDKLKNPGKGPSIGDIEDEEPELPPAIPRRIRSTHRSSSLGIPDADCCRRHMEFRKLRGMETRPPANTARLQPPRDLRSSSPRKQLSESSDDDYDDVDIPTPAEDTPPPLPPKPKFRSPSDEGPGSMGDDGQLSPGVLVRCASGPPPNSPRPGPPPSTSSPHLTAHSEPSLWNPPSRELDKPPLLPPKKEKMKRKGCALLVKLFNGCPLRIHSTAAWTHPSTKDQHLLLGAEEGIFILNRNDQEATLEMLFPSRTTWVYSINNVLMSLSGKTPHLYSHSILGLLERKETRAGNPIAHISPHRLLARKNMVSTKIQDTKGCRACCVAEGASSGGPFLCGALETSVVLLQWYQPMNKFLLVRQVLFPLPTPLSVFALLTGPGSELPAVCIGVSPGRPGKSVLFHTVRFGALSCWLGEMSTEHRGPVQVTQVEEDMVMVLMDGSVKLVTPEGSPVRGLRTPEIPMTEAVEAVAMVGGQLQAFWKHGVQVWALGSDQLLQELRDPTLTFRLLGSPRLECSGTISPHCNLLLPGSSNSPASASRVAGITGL

SMILES: C[C@@H]1OC(=O)c2ccc(Nc3cc4c([C@@](C)(N)C5CC5)cnc(O[C@H]5C[C@H](O)C5)c4cn3)nc2[C@H]1C (relative stereo) [Compound 193, (7S,8R)-2-((5-((R)-1-Amino-1-cyclopropylethyl)-8-((trans)-3-hydroxycyclobutoxy)-2,7-naphthyridin-3-yl)amino)-7,8-dimethyl-7,8-dihydro-5H-pyrano[4,3-b]pyridin-5-one and (7S,8R)-2-((5-((S)-1-amino-1-cyclopropylethyl)-8-((trans)-3-hydroxycyclobutoxy)-2,7-naphthyridin-3-yl)amino)-7,8-dimethyl-7,8-dihydro-5H-pyrano[4,3-b]pyridin-5-one]
IC50 (class designation): < 0.3 nM | IC50 (numeric value): 0.1 nM

SMILES: CC[C@H](F)c1nc(Nc2cc3c(C(C)(C)N)cnc(OC)c3cn2)cnc1C#N (single isomer, unassigned) [Compound 30]
IC50 (class designation): 1.1 to 10 nM | IC50 (numeric value): 3.57 nM

SMILES: CC[C@@H](F)c1nc(Nc2cc3c(C(C)(C)N)cnc(OC)c3cn2)cnc1C#N (single isomer, unassigned) [Compound 31]
IC50 (class designation): 1.1 to 10 nM | IC50 (numeric value): 5.88 nM

SMILES: CC[C@](C)(N)c1cnc(OCC(F)(F)F)c2cnc(Nc3ccc4c(n3)C(C)(C)OC4=O)cc12 (single isomer, unassigned) [Compound 173]
IC50 (class designation): 1.1 to 10 nM | IC50 (numeric value): 1.72 nM

SMILES: CC[C@@](C)(N)c1cnc(OCC(F)(F)F)c2cnc(Nc3ccc4c(n3)C(C)(C)OC4=O)cc12 (single isomer, unassigned) [Compound 175]
IC50 (class designation): > 10 nM | IC50 (numeric value): 35.1 nM

SMILES: CC[C@@H](N)c1ccc(OC)c2cnc(Nc3ccc4c(n3)C3(CC3)C(C)(C)OC4=O)cc12 (single isomer, unassigned) [Compound 207, (S)-2′-((5-(1-Aminopropyl)-8-methoxyisoquinolin-3-yl)amino)-7′,7′-dimethyl-5′H,7′H-spiro[cyclopropane-1,8′-pyrano[4,3-b]pyridin]-5′-one or (R)-2′-((5-(1-aminopropyl)-8-methoxyisoquinolin-3-yl)amino)-7′,7′-dimethyl-5′H,7′H-spiro[cyclopropane-1,8′-pyrano[4,3-b]pyridin]-5′-one]
IC50 (class designation): < 0.3 nM | IC50 (numeric value): 0.22 nM

SMILES: COc1ncc([C@H](C)N)c2cc(Nc3ccnc(C(C)(C)F)n3)ncc12 (stereo in doubt) [Compound 1, 5-(1-Aminoethyl)-N-(2-(2-fluoropropan-2-yl)pyrimidin-4-yl)-8-methoxy-2,7-naphthyridin-3-amine]
IC50 (class designation): > 10 nM | IC50 (numeric value): 21.4 nM

SMILES: COc1ncc(C(C)(C)N)c2cc(Nc3ccnc(OC(C)C)n3)ncc12 [Compound 4]
IC50 (class designation): 0.31 to 1 nM | IC50 (numeric value): 0.42 nM

SMILES: CNc1ncc(C(C)(C)N)c2cc(Nc3ccnc(C(C)(C)F)n3)ncc12 [Compound 6, 4-(2-Aminopropan-2-yl)-N6-(2-(2-fluoropropan-2-yl)pyrimidin-4-yl)-N1-methyl-2,7-naphthyridine-1,6-diamine]
IC50 (class designation): 1.1 to 10 nM | IC50 (numeric value): 3.31 nM

SMILES: CNc1ncc(C(C)(C)N)c2cc(Nc3cnc(C#N)c(C(C)C)n3)ncc12 [Compound 8, 5-((5-(2-Aminopropan-2-yl)-8-(methylamino)-2,7-naphthyridin-3-yl)amino)-3-isopropylpyrazine-2-carbonitrile]
IC50 (class designation): > 10 nM | IC50 (numeric value): 11.1 nM

SMILES: COc1ncc(C(C)(C)N)c2cc(Nc3cnc(C#N)c(C(C)C)n3)ncc12 [Compound 10]
IC50 (class designation): 1.1 to 10 nM | IC50 (numeric value): 2.73 nM

SMILES: CCOc1ncc(C(C)(C)N)c2cc(Nc3ccnc(C(C)(C)F)n3)ncc12 [Compound 16]
IC50 (class designation): 1.1 to 10 nM | IC50 (numeric value): 2.5 nM

SMILES: CNC(C)(C)c1cnc(OC)c2cnc(Nc3ccnc(C(C)(C)F)n3)cc12 [Compound 17, N-(2-(2-Fluoropropan-2-yl)pyrimidin-4-yl)-8-methoxy-5-(2-(methylamino)propan-2-yl)-2,7-naphthyridin-3-amine]
IC50 (class designation): 1.1 to 10 nM | IC50 (numeric value): 4.02 nM

SMILES: CC[C@@H](C)c1nc(Nc2cc3c(C(C)(C)N)cnc(OC)c3cn2)ccc1C#N [Compound 18]
IC50 (class designation): 0.31 to 1 nM | IC50 (numeric value): 0.4 nM

SMILES: COc1ncc(C(C)(C)N)c2cc(Nc3ccnc(N4CCC[C@@H]4C)n3)ncc12 [Compound 27]
IC50 (class designation): < 0.3 nM | IC50 (numeric value): 0.3 nM

SMILES: COc1ncc(C(C)(C)N)c2cc(Nc3cnc(C#N)c(C(C)(C)F)n3)ncc12 [Compound 29]
IC50 (class designation): 1.1 to 10 nM | IC50 (numeric value): 3.98 nM

SMILES: COc1ncc(C(C)(C)N)c2cc(Nc3cnc4c(n3)CC(C)(C)OC4=O)ncc12 [Compound 47]
IC50 (class designation): > 10 nM | IC50 (numeric value): 13.6 nM

SMILES: COc1ncc(C(C)(C)N)c2cc(Nc3cnc(C#N)c(N4CCC[C@@H]4C)n3)ncc12 [Compound 49]
IC50 (class designation): 0.31 to 1 nM | IC50 (numeric value): 1.01 nM

SMILES: COc1ncc(C(C)(C)N)c2cc(Nc3cnc(C#N)c(C(C)C(F)(F)F)n3)ncc12 (stereo not shown) [Compound 63]
IC50 (class designation): 1.1 to 10 nM | IC50 (numeric value): 6.46 nM

SMILES: CC[C@@](C)(N)c1cnc(OC2(C)CC2)c2cnc(Nc3ccc4c(n3)[C@@H](C)[C@H](C)OC4=O)cc12 [Compound 84]
IC50 (class designation): 1.1 to 10 nM | IC50 (numeric value): 1.32 nM

SMILES: CC[C@@](C)(N)c1cnc(OC2(C)CC2)c2cnc(Nc3ccc4c(n3)[C@@H](C)C(C)(C)OC4=O)cc12 [Compound 86]
IC50 (class designation): 1.1 to 10 nM | IC50 (numeric value): 2.03 nM

The remaining lines, values ahead:

IC50 (class designation): 0.31 to 1 nM | IC50 (numeric value): 0.55 nM
SMILES: CC[C@](C)(N)c1cnc(OC)c2cnc(Nc3ccc4c(n3)CC(C)(C)OC4=O)cc12 (single isomer, unassigned) [Compound 62]

IC50 (numeric value): 0.98 nM
SMILES: C[C@](N)(c1cnc(OC2CC2)c2cnc(Nc3ccc4c(n3)CCOC4=O)cc12)C1CC1 (single isomer, unassigned) [Compound 108]

IC50 (class designation): 1.1 to 10 nM | IC50 (numeric value): 2.25 nM
SMILES: C[C@@H]1OC(=O)c2ccc(Nc3cc4c(C(C)(N)CO)cnc(OC5CC5)c4cn3)nc2[C@H]1C (single isomer, unassigned) [Compound 139, (7S,8R)-2-((5-((R)-2-Amino-1-hydroxypropan-2-yl)-8-cyclopropoxy-2,7-naphthyridin-3-yl)amino)-7,8-dimethyl-7,8-dihydro-5H-pyrano[4,3-b]pyridin-5-one or (7S,8R)-2-((5-((S)-2-amino-1-hydroxypropan-2-yl)-8-cyclopropoxy-2,7-naphthyridin-3-yl)amino)-7,8-dimethyl-7,8-dihydro-5H-pyrano[4,3-b]pyridin-5-one]

IC50 (class designation): > 10 nM
SMILES: C[C@@H]1OC(=O)c2ccc(Nc3cc4c([C@](C)(N)CO)cnc(OC5CC5)c4cn3)nc2[C@H]1C (single isomer, unassigned) [Compound 140, (7S,8R)-2-((5-((R)-2-Amino-1-hydroxypropan-2-yl)-8-cyclopropoxy-2,7-naphthyridin-3-yl)amino)-7,8-dimethyl-7,8-dihydro-5H-pyrano[4,3-b]pyridin-5-one or (7S,8R)-2-((5-((S)-2-amino-1-hydroxypropan-2-yl)-8-cyclopropoxy-2,7-naphthyridin-3-yl)amino)-7,8-dimethyl-7,8-dihydro-5H-pyrano[4,3-b]pyridin-5-one]

IC50 (numeric value): 0.11 nM
SMILES: CC1(C)Cc2nc(Nc3cc4c([C@](C)(N)C5CC5)cnc(OC5CC5)c4cn3)ccc2C(=O)N1 (single isomer, unassigned) [Compound 148]

IC50 (numeric value): 2.61 nM
SMILES: CC1(C)Cc2nc(Nc3cc4c([C@@](C)(N)C5CC5)cnc(OC5CC5)c4cn3)ccc2C(=O)O1 (single isomer, unassigned) [Compound 153]

IC50 (class designation): 1.1 to 10 nM | IC50 (numeric value): 7.35 nM
SMILES: C[C@H](Oc1ncc(C(C)(C)N)c2cc(Nc3ccc4c(n3)CC(C)(C)OC4=O)ncc12)C(F)F (single isomer, unassigned) [Compound 164]

IC50 (class designation): 1.1 to 10 nM | IC50 (numeric value): 1.26 nM
SMILES: C[C@@H](Oc1ncc(C(C)(C)N)c2cc(Nc3ccc4c(n3)CC(C)(C)OC4=O)ncc12)C(F)F (single isomer, unassigned) [Compound 165]

IC50 (class designation): 1.1 to 10 nM | IC50 (numeric value): 2.12 nM
SMILES: C[C@@H](Oc1ncc(C(C)(C)N)c2cc(Nc3ccc4c(n3)CC(C)(C)OC4=O)ncc12)C(F)(F)F (single isomer, unassigned) [Compound 179]

IC50 (class designation): > 10 nM | IC50 (numeric value): 15.4 nM
SMILES: C[C@H](Oc1ncc(C(C)(C)N)c2cc(Nc3ccc4c(n3)CC(C)(C)OC4=O)ncc12)C(F)(F)F (single isomer, unassigned) [Compound 180]

IC50 (class designation): > 10 nM | IC50 (numeric value): 52.6 nM
SMILES: COc1ncc(C2CCCN2)c2cc(Nc3ccc4c(n3)CC(C)(C)OC4=O)ncc12 (stereo not shown) [Compound 50, 2-((8-Methoxy-5-(pyrrolidin-2-yl)-2,7-naphthyridin-3-yl)amino)-7,7-dimethyl-7,8-dihydro-5H-pyrano[4,3-b]pyridin-5-one]

IC50 (class designation): < 0.3 nM | IC50 (numeric value): 0.26 nM
SMILES: COc1ncc(C(C)(C)N)c2cc(Nc3ccc4c(n3)[C@H]3CCC[C@H]3OC4=O)ncc12 [Compound 51]

IC50 (class designation): 0.31 to 1 nM | IC50 (numeric value): 0.56 nM
SMILES: C[C@H]1OC(=O)c2ccc(Nc3cc4c(C(C)(C)N)cnc(OC5CC5)c4cn3)nc2[C@@H]1C [Compound 65]

Source: patent publication US11534441B2, “MAP4K1 inhibitors” (Blueprint Medicines Corporation, priority 2020, dated 2022)
